# Test results: patent publication US9550078B2, “EDAR ligand derived peptides and use thereof” (CAREGEN CO., LTD., priority 2011, dated 2017)
# Where no end group is shown, it is not given here.
# Assays:
# Type in all cases: cell-based
# [1] = test system: NIH3T3 fibroblasts; test: SRB colorimetric assay of cell growth; details: 1, 10 and 50 μg/ml, 72 hr, absorbance at 590 nm
# Description: In order to evaluate three peptides prepared in Preparation Example 1 whether they have similar activities of growth factor, SRB (Sulforhodamine B; Sigma-Aldrich) colorimetric assay was carried out using HaCaT kerationcytes (Korean Cell Line Bank) and NIH3T3 fibroblasts (Korean Cell Line Bank) according to Rizzino et al. method (Rizzino, et al. Cancer Res., 48: 4266 (1988)).
# HaCaT ketatinocytes and NIH3T3 fibroblasts were cultured in 250 ml-flasks containing EMEM (Eagle's minimal essential media; Gibco, USA) supplemented with 10% FBS (fetal bovine serum; Sigma). Cells cultured were treated with 1% trypsin solution to detach cells from the bottom of culture flasks and centrifuged to collect cell pellets. After cells were resuspended in EMEM not containing FBS, its aliquot (3×10^3 cells) was added to each well of 96-well plates and cultured under 5% CO2 for 24 hr at 37° C. After 24-hr culture, the medium was changed with a fresh medium without serum and cells were incubated with empty sample (for normalization) and peptides synthesized aseptically dissolved in […] distilled water with the respective concentrations of 1 μg/ml, 10 μg/ml and 50 μg/ml for 72 hr under the same conditions as described above. After removing supernatants, cells were fixed with ethanol and then washed three times using PBS (phosphate buffered saline), followed by incubation with SRB solution. Cells were sufficiently washed with 1% acetic acid and observed under a microscope to find living cell condition. In addition, absorbance at 590 nm was measured to analyze cell viability.
# [2] = test system: IκB; test: Western blot of IκB degradation (EDA1-EDAR signal); details: HaCaT keratinocytes, 20 min
# Description: (§1) HaCaT kerationcytes were incubated with the peptides synthesized in preparation Example 1 for 20 min. The translocation of NF-κB into nucleus through the phosphorylation of IκB was examined as a representative signaling of EDA protein. The respective effect was measured by Western blot analysis using an antibody against IκB and NF-κB (SantaCruz, USA). The effect of IκB degradation through phosphorylation and uniquitination in a concentration dependent manner of the treated peptides of this invention was confirmed (FIGS. 3a and 3b). Furthermore, the activation and nucleus translocation of NF-κB was also observed after degradation of IκB (FIGS. 4a and 4b). […] The expression levels of the above mentioned proteins of IL-1b, IL-6, and COX-2 were increased with the translocations of NF-κB into nucleus which is induced by the treatments of the peptides.
# [3] = test system: NF-κB; test: Western blot of NF-κB translocation into nucleus; details: HaCaT keratinocytes, 20 min
# Description: as §1
# [4] = test system: IL-1b, IL-6, and COX-2; test: RT-PCR of NF-κB-induced genes; details: HaCaT keratinocytes
# Description: as §1
# [5] = test system: Shh protein; test: Western blot of Shh protein expression; details: keratinocytes, 10 μg/ml, 24 hr
# Description: To verify whether the peptides synthesized in preparation Example 1 enhances the expression of Shh protein which is known as EDA1 target molecule and to stimulate the hair follicle, kerationcytes (3×10^5 cells) was added to each well of 96-well plates and cultured under 5% CO2 for 24 hr at 37° C. After 24-hr culture, the medium was changed with a fresh medium without serum and cells were treated with empty sample (for normalization) and peptides synthesized aseptically dissolved in distilled water with the concentration of 10 μg/ml and cultured for 24 hr under the same conditions as described above. After that, the cell culture was collected and the expression level of Shh was measured through Western blotting using the specific antibody to Shh protein.
Sequence,growth of fibroblasts [1],growth of fibroblasts ([1]; listed as SEQ ID NO:2),cellular amount of IκB protein (degradation through phosphorylation and ubiquitination) [2],translocation of NF-κB into nucleus [3],"expression of COX-2, IL-6, IL-1b [4]",expression of Shh protein [5],growth of fibroblasts ([1]; listed as SEQ ID NO:1)
LLADTTHHRPWT [compound 2],notably increases,stimulatory effect,reduced,translocation of NF-κB into nucleus after activation,remarkably enhanced,remarkably enhanced,–
NMSKHTTFFGA,notably increases,–,reduced,translocation of NF-κB into nucleus after activation,remarkably enhanced,remarkably enhanced,stimulatory effect
